Data from publication PMC8222254, “Self-assembly of an anion receptor with metal-dependent kinase inhibition and potent in vitro anti-cancer properties” (Nature Communications, 2021).
“And” between values parts separate entries of the source, which are not always exact repeats. Identical values can stand only once. Like-named read-outs stand apart in the source and are kept apart here.

What was measured:
Assay in all cases: Chemosensitivity, 96 h continuous exposure, MTT assay
Type in all cases: cell-based, human
[1] = system: HT-29; conditions: for Selectivity index (ARPE19): IC50 ARPE-19 / IC50 HT29; for Selectivity index (MCF10A): IC50 MCF10A / IC50 HT29; for Relative potency (+ anion to no anion), Ratio + anion:no anion: ratio of IC50, HT29; for Selectivity indices relative to ARPE-19, Ratio + anion:no anion: ratio of SI (ARPE-19); for Selectivity indices relative to MCF10A, Ratio + anion:no anion: ratio of SI (MCF 10A)
Procedure, shortened: (§1)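 Cells seeded at 2 × 10^3/well (GBM1 3 × 10^3/well) and left overnight at 37 °C, then exposed continuously for 96 h to a range of compound concentrations (final DMSO 0.2%). Viability read by MTT, absorbance at 540 nm; IC50 taken from dose-response curves as concentration reducing cell growth by 50%.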

[2] = system: PSN1; conditions: for Selectivity index (ARPE19): IC50 ARPE-19 / IC50 PSN1; for Selectivity index (MCF10A): IC50 MCF10A / IC50 PSN1; for IC50 / Selectivity indices relative to ARPE-19, Ratio + anion:no anion / Selectivity indices relative to MCF10A, Ratio + anion:no anion: PSN1; for Relative potency (+ anion to no anion), Ratio + anion:no anion: ratio of IC50, PSN1; for Selectivity indices relative to ARPE-19, Ratio + anion:no anion: ratio of SI (ARPE-19); for Selectivity indices relative to MCF10A, Ratio + anion:no anion: ratio of SI (MCF 10A)
Procedure, shortened: as §1

[3] = system: BxPC3; conditions: for IC50 / Selectivity indices relative to ARPE-19, Ratio + anion:no anion / Selectivity indices relative to MCF10A, Ratio + anion:no anion: BXPC3; for Selectivity index (ARPE19): IC50 ARPE-19 / IC50 BXPC3; for Selectivity index (MCF10A): IC50 MCF10A / IC50 BXPC3; for Relative potency (+ anion to no anion), Ratio + anion:no anion: ratio of IC50, BXPC3; for Selectivity indices relative to ARPE-19, Ratio + anion:no anion: ratio of SI (ARPE-19); for Selectivity indices relative to MCF10A, Ratio + anion:no anion: ratio of SI (MCF 10A)
Procedure, shortened: as §1

[4] = system: HCT116 p53+/+; conditions: for IC50 / Selectivity indices relative to ARPE-19, Ratio + anion:no anion / Selectivity indices relative to MCF10A, Ratio + anion:no anion: HCT116 p53+/+; for Selectivity index (ARPE19): IC50 ARPE-19 / IC50 HCT116 p53+/+; for Selectivity index (MCF10A): IC50 MCF10A / IC50 HCT116 p53+/+; for Relative potency (+ anion to no anion), Ratio + anion:no anion: ratio of IC50, HCT116 p53+/+; for Selectivity indices relative to ARPE-19, Ratio + anion:no anion: ratio of SI (ARPE-19); for Selectivity indices relative to MCF10A, Ratio + anion:no anion: ratio of SI (MCF 10A)
Procedure, shortened: as §1

[5] = system: HCT116 p53-/-; conditions: for IC50 / Selectivity indices relative to ARPE-19, Ratio + anion:no anion / Selectivity indices relative to MCF10A, Ratio + anion:no anion: HCT116 p53-/-; for Selectivity index (ARPE19): IC50 ARPE-19 / IC50 HCT116 p53-/-; for Selectivity index (MCF10A): IC50 MCF10A / IC50 HCT116 p53-/-; for Relative potency (+ anion to no anion), Ratio + anion:no anion: ratio of IC50, HCT116 p53-/-; for Selectivity indices relative to ARPE-19, Ratio + anion:no anion: ratio of SI (ARPE-19); for Selectivity indices relative to MCF10A, Ratio + anion:no anion: ratio of SI (MCF 10A)
Procedure, shortened: as §1

[6] = system: A549; conditions: for IC50 / Selectivity indices relative to ARPE-19, Ratio + anion:no anion / Selectivity indices relative to MCF10A, Ratio + anion:no anion: A549; for Selectivity index (ARPE19): IC50 ARPE-19 / IC50 A549; for Selectivity index (MCF10A): IC50 MCF10A / IC50 A549; for Relative potency (+ anion to no anion), Ratio + anion:no anion: ratio of IC50, A549; for Selectivity indices relative to ARPE-19, Ratio + anion:no anion: ratio of SI (ARPE-19); for Selectivity indices relative to MCF10A, Ratio + anion:no anion: ratio of SI (MCF 10A)
Procedure, shortened: as §1

[7] = system: DLD-1; conditions: for IC50 / Selectivity indices relative to ARPE-19, Ratio + anion:no anion / Selectivity indices relative to MCF10A, Ratio + anion:no anion: DLD-1; for Selectivity index (ARPE19): IC50 ARPE-19 / IC50 DLD-1; for Selectivity index (MCF10A): IC50 MCF10A / IC50 DLD-1; for Relative potency (+ anion to no anion), Ratio + anion:no anion: ratio of IC50, DLD-1; for Selectivity indices relative to ARPE-19, Ratio + anion:no anion: ratio of SI (ARPE-19); for Selectivity indices relative to MCF10A, Ratio + anion:no anion: ratio of SI (MCF 10A)
Procedure, shortened: as §1

[8] = HT29, mean of replicates, read-out: Mean IC50
[9] = HT29, read-out: Mean IC50 values
[10] = HT-29, single replicate, read-out: IC50 values for each replicate
[11] = mean of replicates, read-out: Mean IC50
[12] = single replicate, read-out: IC50 values for each replicate

CC(=O)[O-].CC(=O)[O-].CC(=O)[O-].O=P([O-])([O-])[O-].[Zn+2].[Zn+2].[Zn+2].c1ccc(-c2csc(NCCN(CCNc3nc(-c4ccccn4)cs3)CCNc3nc(-c4ccccn4)cs3)n2)nc1.c1ccc(-c2csc(NCCN(CCNc3nc(-c4ccccn4)cs3)CCNc3nc(-c4ccccn4)cs3)n2)nc1 [[L2Zn3(PO4)]3+]
IC50 [1, 8]: 214 nM
IC50 [1, 9]: 214 nM
IC50 [1, 10]: 91 nM and 254 nM and 236 nM and 228 nM and 262 nM
Selectivity index (ARPE19) [1]: 612.01
Selectivity index (MCF10A) [1]: 67.40
Relative potency (+ anion to no anion), Ratio + anion:no anion [1]: 1.27
Selectivity indices relative to ARPE-19, Ratio + anion:no anion ([1]; HT29): 0.658
Selectivity indices relative to MCF10A, Ratio + anion:no anion ([1]; HT29): 0.070
Selectivity index (ARPE19) [2]: 19.60
Selectivity index (MCF10A) [2]: 2.16
IC50 [2, 11]: 6.68 µM
IC50 ([2]; read-out: Mean IC50 values): 6.68 µM
IC50 [2, 12]: 6.73 µM and 6.48 µM and 6.84 µM
Relative potency (+ anion to no anion), Ratio + anion:no anion [2]: 1.50
Selectivity indices relative to ARPE-19, Ratio + anion:no anion [2]: 0.554
Selectivity indices relative to MCF10A, Ratio + anion:no anion [2]: 0.059
IC50 [3, 11]: 728 nM
IC50 ([3]; read-out: Mean IC50 values): 728 nM
IC50 [3, 12]: 812 nM and 698 nM and 618 nM and 766 nM
Selectivity index (ARPE19) [3]: 179.90
Selectivity index (MCF10A) [3]: 19.81
Relative potency (+ anion to no anion), Ratio + anion:no anion [3]: 2.28
Selectivity indices relative to ARPE-19, Ratio + anion:no anion [3]: 0.366
Selectivity indices relative to MCF10A, Ratio + anion:no anion [3]: 0.039
IC50 [4, 11]: 218 nM
IC50 ([4]; read-out: Mean IC50 values): 218 nM
IC50 [4, 12]: 218 nM and 227 nM and 209 nM
Selectivity index (ARPE19) [4]: 600.78
Selectivity index (MCF10A) [4]: 66.16
Relative potency (+ anion to no anion), Ratio + anion:no anion [4]: 0.47
Selectivity indices relative to ARPE-19, Ratio + anion:no anion [4]: 1.780
Selectivity indices relative to MCF10A, Ratio + anion:no anion [4]: 0.191
IC50 ([5]; read-out: Mean IC50 values): 78 nM
IC50 [5, 12]: 61 nM and 91 nM and 64 nM
Selectivity index (ARPE19) [5]: 1679.10
Selectivity index (MCF10A) [5]: 184.91
Relative potency (+ anion to no anion), Ratio + anion:no anion [5]: 1.08
Selectivity indices relative to ARPE-19, Ratio + anion:no anion [5]: 0.769
Selectivity indices relative to MCF10A, Ratio + anion:no anion [5]: 0.082
IC50 [6, 11]: 501 nM
IC50 ([6]; read-out: Mean IC50 values): 501 nM
IC50 [6, 12]: 234 nM and 734 nM and 617 nM and 417 nM
Selectivity index (ARPE19) [6]: 261.42
Selectivity index (MCF10A) [6]: 28.79
Relative potency (+ anion to no anion), Ratio + anion:no anion [6]: 1.24
Selectivity indices relative to ARPE-19, Ratio + anion:no anion [6]: 0.670
Selectivity indices relative to MCF10A, Ratio + anion:no anion [6]: 0.072
IC50 [7, 11]: 190 nM
IC50 ([7]; read-out: Mean IC50 values): 190 nM
IC50 [7, 12]: 203 nM and 90 nM and 180 nM and 219 nM and 259 nM
Selectivity index (ARPE19) [7]: 689.32
Selectivity index (MCF10A) [7]: 75.91
Relative potency (+ anion to no anion), Ratio + anion:no anion [7]: 1.12
Selectivity indices relative to ARPE-19, Ratio + anion:no anion [7]: 0.745
Selectivity indices relative to MCF10A, Ratio + anion:no anion [7]: 0.080

O=S(=O)(O)O.[Zn+2].[Zn+2].[Zn+2].c1ccc(-c2csc(NCCN(CCNc3nc(-c4ccccn4)cs3)CCNc3nc(-c4ccccn4)cs3)n2)nc1.c1ccc(-c2csc(NCCN(CCNc3nc(-c4ccccn4)cs3)CCNc3nc(-c4ccccn4)cs3)n2)nc1 [[L2Zn3(SO4)]4+]
IC50 [1, 8]: 238 nM
IC50 [1, 9]: 238 nM
IC50 [1, 10]: 70 nM and 166 nM and 210 nM and 243 nM and 499 nM
Selectivity index (ARPE19) [1]: 711.22
Selectivity index (MCF10A) [1]: 63.98
Relative potency (+ anion to no anion), Ratio + anion:no anion [1]: 1.41
Selectivity indices relative to ARPE-19, Ratio + anion:no anion ([1]; HT29): 0.764
Selectivity indices relative to MCF10A, Ratio + anion:no anion ([1]; HT29): 0.067
Selectivity index (ARPE19) [2]: 748.98
Selectivity index (MCF10A) [2]: 67.38
IC50 [2, 11]: 0.226 µM
IC50 ([2]; read-out: Mean IC50 values): 0.226 µM
IC50 [2, 12]: 0.217 µM and 0.199 µM and 0.261 µM
activity relative to [L2Zn3(PO4)]3+ or [L2Zn3]6+ ([2]; PSN1 cell line, anion pre-encapsulated): significantly more active
Relative potency (+ anion to no anion), Ratio + anion:no anion [2]: 0.05
Selectivity indices relative to ARPE-19, Ratio + anion:no anion [2]: 21.164
Selectivity indices relative to MCF10A, Ratio + anion:no anion [2]: 1.852
IC50 [3, 11]: 599 nM
IC50 ([3]; read-out: Mean IC50 values): 599 nM
IC50 [3, 12]: 668 nM and 428 nM and 705 nM and 728 nM and 465 nM
Selectivity index (ARPE19) [3]: 282.59
Selectivity index (MCF10A) [3]: 25.42
Relative potency (+ anion to no anion), Ratio + anion:no anion [3]: 1.87
Selectivity indices relative to ARPE-19, Ratio + anion:no anion [3]: 0.575
Selectivity indices relative to MCF10A, Ratio + anion:no anion [3]: 0.050
IC50 [4, 11]: 66 nM
IC50 ([4]; read-out: Mean IC50 values): 66 nM
IC50 [4, 12]: 63 nM and 74 nM and 62 nM
Selectivity index (ARPE19) [4]: 2564.70
Selectivity index (MCF10A) [4]: 230.73
Relative potency (+ anion to no anion), Ratio + anion:no anion [4]: 0.14
Selectivity indices relative to ARPE-19, Ratio + anion:no anion [4]: 7.600
Selectivity indices relative to MCF10A, Ratio + anion:no anion [4]: 0.665
IC50 [5, 11]: 61 nM
IC50 ([5]; read-out: Mean IC50 values): 61 nM
IC50 [5, 12]: 59 nM and 64 nM and 61 nM
Selectivity index (ARPE19) [5]: 2774.92
Selectivity index (MCF10A) [5]: 249.64
Relative potency (+ anion to no anion), Ratio + anion:no anion [5]: 0.85
Selectivity indices relative to ARPE-19, Ratio + anion:no anion [5]: 1.271
Selectivity indices relative to MCF10A, Ratio + anion:no anion [5]: 0.111
IC50 [6, 11]: 582 nM
IC50 ([6]; read-out: Mean IC50 values): 582 nM
IC50 [6, 12]: 263 nM and 588 nM and 773 nM and 704 nM
Selectivity index (ARPE19) [6]: 290.84
Selectivity index (MCF10A) [6]: 26.16
Relative potency (+ anion to no anion), Ratio + anion:no anion [6]: 1.44
Selectivity indices relative to ARPE-19, Ratio + anion:no anion [6]: 0.745
Selectivity indices relative to MCF10A, Ratio + anion:no anion [6]: 0.065
IC50 [7, 11]: 338 nM
IC50 ([7]; read-out: Mean IC50 values): 338 nM
Selectivity index (ARPE19) [7]: 500.80
Selectivity index (MCF10A) [7]: 45.05
Relative potency (+ anion to no anion), Ratio + anion:no anion [7]: 1.99
Selectivity indices relative to ARPE-19, Ratio + anion:no anion [7]: 0.541
Selectivity indices relative to MCF10A, Ratio + anion:no anion [7]: 0.047
